Experimental data: patent US10383332B2, “Antimicrobial compositions and related methods of use” (Jeneil Biosurfactant Company, LLC, priority 2013, dated 2019)

Key:
Experiment in all cases: Vapor test, microcup on PDA Petri plate
Conditions in all cases: vapors
Aspergillus fumigatus = tested on: Aspergillus fumigatus
Cercospora beticola = tested on: Cercospora beticola
Geotrichum candidum = tested on: Geotrichum candidum
Botrytis alli = tested on: Botrytis alli
Rhizoctonia solani = tested on: Rhizoctonia solani
Pythium ultimum = tested on: Pythium ultimum
Aspergillus niger = tested on: Aspergillus niger
Phytophthora palmivora = tested on: Phytophthora palmivora

CCC(=O)O [Propanoic Acid, propanoic acid]
80%: % inhibition, alone at 20 μl After 24 hr (C) (Rhizoctonia solani) | % inhibition, alone at 20 μl After 24 hr (C) (Pythium ultimum)
Alive: Alive or dead, alone at 20 μl After 24 hr (C) (Aspergillus fumigatus) | Alive or dead, alone at 20 μl After 24 hr (C) (Cercospora beticola) | Alive or dead, alone at 20 μl After 24 hr (C) (Geotrichum candidum) | Alive or dead, alone at 20 μl After 24 hr (C) (Botrytis alli) | Alive or dead, alone at 20 μl After 24 hr (C) (Rhizoctonia solani) | Alive or dead, alone at 20 μl After 24 hr (C) (Pythium ultimum) | Alive or dead, alone at 20 μl After 24 hr (C) (Aspergillus niger)
75%: % inhibition, alone at 20 μl After 24 hr (C) (Cercospora beticola)
0%: % inhibition, alone at 20 μl After 24 hr (C) (Aspergillus fumigatus) | % inhibition, alone at 20 μl After 24 hr (C) (Geotrichum candidum) | % inhibition, alone at 20 μl After 24 hr (C) (Botrytis alli) | % inhibition, alone at 20 μl After 24 hr (C) (Aspergillus niger)
100%: % inhibition, alone at 20 μl After 24 hr (C) (Phytophthora palmivora)
